Source: the Kinase Knowledgebase extract (Sharma et al. 2016)

Assays:
PIK3CB (Human) = PIK3CB (Human) (UniProt P42338); assay: Enzyme Assay
PIK3CD (Human) [1] = biological target: PIK3CD (Human) (UniProt O00329); assay: Enzyme Assay
PIK3CG (human) = PIK3CG (human) (UniProt P48736); assay: Enzyme Assay
PIK3CD (Human) [2] = biological target: PIK3CD (Human) (UniProt O00329); assay: Cell-Based Assay; details: raji

Chain of PIK3CD (Human) (O00329 whole entry, looked up): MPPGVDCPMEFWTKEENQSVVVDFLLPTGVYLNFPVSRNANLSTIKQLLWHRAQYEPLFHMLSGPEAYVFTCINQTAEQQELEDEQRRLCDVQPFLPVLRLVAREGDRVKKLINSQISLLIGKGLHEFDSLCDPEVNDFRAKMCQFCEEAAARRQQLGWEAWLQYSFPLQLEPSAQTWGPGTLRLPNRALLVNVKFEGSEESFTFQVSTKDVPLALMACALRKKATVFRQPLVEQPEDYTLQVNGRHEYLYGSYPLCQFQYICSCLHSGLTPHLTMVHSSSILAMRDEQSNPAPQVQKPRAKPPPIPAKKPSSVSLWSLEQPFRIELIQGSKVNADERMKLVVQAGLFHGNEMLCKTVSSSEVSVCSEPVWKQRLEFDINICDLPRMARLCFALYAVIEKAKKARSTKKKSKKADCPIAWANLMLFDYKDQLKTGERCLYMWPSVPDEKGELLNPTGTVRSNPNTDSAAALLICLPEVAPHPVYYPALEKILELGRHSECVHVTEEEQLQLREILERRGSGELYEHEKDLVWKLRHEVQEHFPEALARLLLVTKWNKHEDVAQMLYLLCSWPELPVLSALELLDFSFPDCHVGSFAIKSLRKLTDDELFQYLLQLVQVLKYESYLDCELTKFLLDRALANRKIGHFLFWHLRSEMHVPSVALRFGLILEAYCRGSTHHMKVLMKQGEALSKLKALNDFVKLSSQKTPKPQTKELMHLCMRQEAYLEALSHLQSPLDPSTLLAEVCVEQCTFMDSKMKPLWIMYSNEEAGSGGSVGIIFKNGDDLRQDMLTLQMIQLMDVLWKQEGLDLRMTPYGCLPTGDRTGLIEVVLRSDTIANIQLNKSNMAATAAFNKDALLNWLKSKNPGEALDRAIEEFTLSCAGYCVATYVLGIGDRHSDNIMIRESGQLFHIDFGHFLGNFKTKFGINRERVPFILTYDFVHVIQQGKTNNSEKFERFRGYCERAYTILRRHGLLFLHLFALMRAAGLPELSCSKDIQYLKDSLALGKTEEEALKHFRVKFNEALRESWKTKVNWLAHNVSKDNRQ
Chain of PIK3CG (human) (P48736 whole entry, looked up): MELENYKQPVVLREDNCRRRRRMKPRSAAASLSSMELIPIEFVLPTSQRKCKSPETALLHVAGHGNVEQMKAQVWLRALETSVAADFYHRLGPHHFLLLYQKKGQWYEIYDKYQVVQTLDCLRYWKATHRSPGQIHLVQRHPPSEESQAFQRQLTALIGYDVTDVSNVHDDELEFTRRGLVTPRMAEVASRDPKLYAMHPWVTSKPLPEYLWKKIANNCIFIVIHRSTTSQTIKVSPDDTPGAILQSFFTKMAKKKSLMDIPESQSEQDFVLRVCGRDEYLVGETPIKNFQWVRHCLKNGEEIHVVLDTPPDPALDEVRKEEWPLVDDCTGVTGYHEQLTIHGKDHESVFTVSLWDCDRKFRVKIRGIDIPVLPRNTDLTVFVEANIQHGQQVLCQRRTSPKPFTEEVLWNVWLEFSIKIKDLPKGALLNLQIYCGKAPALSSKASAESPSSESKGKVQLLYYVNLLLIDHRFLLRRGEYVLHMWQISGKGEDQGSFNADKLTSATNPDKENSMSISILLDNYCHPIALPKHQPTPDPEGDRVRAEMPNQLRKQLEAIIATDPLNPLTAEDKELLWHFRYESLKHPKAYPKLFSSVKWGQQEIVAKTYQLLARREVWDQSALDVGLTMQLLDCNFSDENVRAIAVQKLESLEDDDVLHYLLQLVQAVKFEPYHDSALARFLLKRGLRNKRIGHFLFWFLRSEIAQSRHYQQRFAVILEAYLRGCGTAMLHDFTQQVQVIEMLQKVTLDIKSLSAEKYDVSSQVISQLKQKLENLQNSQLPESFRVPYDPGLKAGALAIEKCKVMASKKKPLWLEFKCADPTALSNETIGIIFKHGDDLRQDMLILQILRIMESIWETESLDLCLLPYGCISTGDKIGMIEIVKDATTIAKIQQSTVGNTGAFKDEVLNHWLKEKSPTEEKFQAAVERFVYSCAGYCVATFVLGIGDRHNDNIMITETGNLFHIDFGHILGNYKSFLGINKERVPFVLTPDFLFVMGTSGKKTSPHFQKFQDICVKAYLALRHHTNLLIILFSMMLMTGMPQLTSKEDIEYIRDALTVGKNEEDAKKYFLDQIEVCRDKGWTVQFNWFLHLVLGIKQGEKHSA
Chain of PIK3CB (Human) (P42338 whole entry, looked up): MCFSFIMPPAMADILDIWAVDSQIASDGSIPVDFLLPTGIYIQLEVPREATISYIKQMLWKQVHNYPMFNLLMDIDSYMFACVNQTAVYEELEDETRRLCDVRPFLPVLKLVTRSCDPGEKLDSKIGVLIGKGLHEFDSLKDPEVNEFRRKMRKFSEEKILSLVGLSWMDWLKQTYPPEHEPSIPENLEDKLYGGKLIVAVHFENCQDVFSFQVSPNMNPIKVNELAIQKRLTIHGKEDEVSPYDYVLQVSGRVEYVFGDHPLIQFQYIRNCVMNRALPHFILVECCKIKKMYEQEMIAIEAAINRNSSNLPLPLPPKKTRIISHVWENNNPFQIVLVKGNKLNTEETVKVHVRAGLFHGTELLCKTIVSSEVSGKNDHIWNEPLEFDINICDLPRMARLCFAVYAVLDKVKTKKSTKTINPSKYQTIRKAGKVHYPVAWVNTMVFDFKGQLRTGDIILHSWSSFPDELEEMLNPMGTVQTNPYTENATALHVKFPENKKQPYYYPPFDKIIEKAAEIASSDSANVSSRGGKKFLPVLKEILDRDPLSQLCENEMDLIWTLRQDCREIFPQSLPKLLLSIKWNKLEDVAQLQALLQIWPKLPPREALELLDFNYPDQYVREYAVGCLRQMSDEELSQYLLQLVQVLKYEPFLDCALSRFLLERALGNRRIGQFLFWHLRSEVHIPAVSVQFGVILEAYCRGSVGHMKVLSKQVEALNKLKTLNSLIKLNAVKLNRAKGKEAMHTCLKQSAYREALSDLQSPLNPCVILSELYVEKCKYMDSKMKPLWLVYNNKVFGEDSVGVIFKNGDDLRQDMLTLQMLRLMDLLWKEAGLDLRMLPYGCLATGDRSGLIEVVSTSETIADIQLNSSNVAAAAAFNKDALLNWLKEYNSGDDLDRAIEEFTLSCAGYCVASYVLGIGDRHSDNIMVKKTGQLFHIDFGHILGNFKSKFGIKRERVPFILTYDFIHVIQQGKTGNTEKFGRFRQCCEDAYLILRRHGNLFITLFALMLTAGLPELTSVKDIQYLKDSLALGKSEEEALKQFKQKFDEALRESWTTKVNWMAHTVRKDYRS

Row | SMILES | IC50 (PIK3CB (Human)) [µM] | IC50 (PIK3CD (Human) [1]) [µM] | IC50 (PIK3CG (human)) [nM] | IC50 (PIK3CD (Human) [2]) [nM]
1 | C[C@H](NC(=O)c1c(N)nn2cccnc12)c1cc2cccc(C#CC(F)(F)F)c2c(=O)n1-c1ccccc1 | 5 to 10 | 5 to 10 | 1000 to 5000 | 500 to 1000
2 | C/C=C/c1cccc2cc([C@H](C)NC(=O)c3c(N)nn4cccnc34)n(-c3ccccc3)c(=O)c12 | 5 to 10 | 5 to 10 | 100 to 500 | 1 to 100
3 | C[C@H](NC(=O)c1c(N)nn2cccnc12)c1cc2cccc(C#CC(C)(C)N)c2c(=O)n1-c1ccccc1 | 5 to 10 | 5 to 10 | 500 to 1000 | 1000 to 10000
4 | C#Cc1cccc2nc([C@H](C)NC(=O)c3nccnc3N)n(-c3ccc(F)cc3)c(=O)c12 | 1 to 5 | 1 to 5 | 1 to 100 | 1 to 100
5 | C[C@H](NC(=O)c1c(N)nn2cccnc12)c1cc2cccc(C#Cc3ccccn3)c2c(=O)n1-c1ccccc1 | 5 to 10 | 5 to 10 | 100 to 500 | 500 to 1000
6 | C[C@H](NC(=O)c1nccnc1N)c1cc2cccc(C#Cc3cnn(C)c3)c2c(=O)n1-c1ccccc1 | 1 to 5 | 1 to 5 | 100 to 500 | 1 to 100
7 | C[C@H](NC(=O)c1c(N)nn2cccnc12)c1cc2cccc(C#CC3CCCC3)c2c(=O)n1-c1ccccc1 | 5 to 10 | 5 to 10 | 1000 to 5000 | 1000 to 10000
8 | Cc1ncccc1C#Cc1cccc2cc([C@H](C)NC(=O)c3c(N)nn4cccnc34)n(-c3ccccc3)c(=O)c12 | 5 to 10 | 5 to 10 | 1000 to 5000 | 1000 to 10000
9 | C[C@H](NC(=O)c1c(N)nn2cccnc12)c1cc2cccc(C#CC3(O)CN4CCC3CC4)c2c(=O)n1-c1ccccc1 (stereo not given in full) | 5 to 10 | 5 to 10 | 500 to 1000 | 1000 to 10000
10 | C[C@H](NC(=O)c1c(N)nn2cccnc12)c1cc2cccc(C#Cc3cscn3)c2c(=O)n1-c1ccccc1 | 1 to 5 | 1 to 5 | 1 to 100 | 100 to 500
11 | COc1cc(C#Cc2cccc3cc([C@H](C)NC(=O)c4c(N)nn5cccnc45)n(-c4ccccc4)c(=O)c23)ccn1 | 5 to 10 | 5 to 10 | 1000 to 5000 | 100 to 500
12 | C[C@H](NC(=O)c1cnn2cccnc12)c1cc2cccc(C#Cc3cnn(C)c3)c2c(=O)n1-c1ccccc1 | 5 to 10 | 5 to 10 | 100 to 500 | 1000 to 10000
13 | C[C@H](NC(=O)c1c(N)nn2cccnc12)c1nc2cccc(C#Cc3cnn(C)c3)c2c(=O)n1C | 1 to 5 | 5 to 10 | 1000 to 5000 | 500 to 1000
14 | Cc1ncc(C#Cc2cccc3cc([C@H](C)NC(=O)c4c(N)nn5cccnc45)n(-c4ccccc4)c(=O)c23)n1C | 5 to 10 | 5 to 10 | 1 to 100 | 500 to 1000
15 | Cc1ccncc1C#Cc1cccc2cc([C@H](C)NC(=O)c3c(N)nn4cccnc34)n(-c3ccccc3)c(=O)c12 | 5 to 10 | 5 to 10 | 500 to 1000 | 1000 to 10000
16 | COc1cnc(C(=O)N[C@@H](C)c2cc3cccc(C#Cc4cnn(C)c4)c3c(=O)n2-c2ccccc2)c(N)n1 | 5 to 10 | 5 to 10 | > 5000 | 1000 to 10000
17 | Cc1nc(C#Cc2cccc3nc([C@H](C)NC(=O)c4c(N)nn5cccnc45)n(-c4ccccc4)c(=O)c23)cs1 | 5 to 10 | 5 to 10 | 1 to 100 | 500 to 1000
18 | C[C@H](NC(=O)c1c(N)nn2cccnc12)c1cc2cccc(C#CC3CCOC3)c2c(=O)n1-c1ccccc1 (stereo not given in full) | 5 to 10 | 5 to 10 | 1 to 100 | 100 to 500
19 | C[C@H](NC(=O)c1c(N)nn2cccnc12)c1cc2cccc(C#Cc3cncs3)c2c(=O)n1-c1ccccc1 | 5 to 10 | 5 to 10 | 100 to 500 | 100 to 500
20 | C[C@H](NC(=O)c1c(N)nn2cccnc12)c1cc2cccc(C#CC(C)(C)O)c2c(=O)n1-c1ccccc1 | 5 to 10 | 5 to 10 | 100 to 500 | 1000 to 10000
21 | C[C@H](NC(=O)c1c(N)nn2cccnc12)c1cc2cccc(C#Cc3ccn(C)n3)c2c(=O)n1-c1ccccc1 | 5 to 10 | 5 to 10 | 100 to 500 | 100 to 500
22 | Cc1nc(C)c(C#Cc2cccc3cc([C@H](C)NC(=O)c4c(N)nn5cccnc45)n(-c4ccccc4)c(=O)c23)s1 | 5 to 10 | 5 to 10 | 500 to 1000 | 1000 to 10000
23 | C[C@H](NC(=O)c1c(N)nn2cccnc12)c1cc2cccc(C#Cc3cncn3C)c2c(=O)n1-c1ccccc1 | 5 to 10 | 5 to 10 | 100 to 500 | 500 to 1000
24 | C[C@H](NC(=O)c1c(N)nn2cccnc12)c1cc2cccc(CC(=O)c3cnn(C)c3)c2c(=O)n1-c1ccccc1 | 5 to 10 | 5 to 10 | 500 to 1000 | 100 to 500
25 | Cc1c(C#Cc2cccc3nc([C@H](C)NC(=O)c4c(N)nn5cccnc45)n(-c4ccccc4)c(=O)c23)cnn1C | 5 to 10 | 5 to 10 | 100 to 500 | 100 to 500
26 | Cc1nc(C#Cc2cccc3cc([C@H](C)NC(=O)c4c(N)nn5cccnc45)n(-c4ccccc4)c(=O)c23)cs1 | 5 to 10 | 5 to 10 | 1 to 100 | 100 to 500
27 | C[C@H](NC(=O)c1c(N)nn2cccnc12)c1cc2cccc(C#CC3CCCCC3)c2c(=O)n1-c1ccccc1 | 5 to 10 | 5 to 10 | 1000 to 5000 | 1000 to 10000
28 | C[C@H](NC(=O)c1c(N)nn2cccnc12)c1cc2cccc(C#Cc3cccnc3)c2c(=O)n1-c1ccccc1 | 5 to 10 | 5 to 10 | 100 to 500 | 100 to 500
29 | CC(=O)N1CCC(C#Cc2cccc3cc([C@H](C)NC(=O)c4c(N)nn5cccnc45)n(-c4ccccc4)c(=O)c23)CC1 | 5 to 10 | 5 to 10 | 100 to 500 | 500 to 1000
30 | Cc1ncsc1C#Cc1cccc2cc([C@H](C)NC(=O)c3c(N)nn4cccnc34)n(-c3ccccc3)c(=O)c12 | 5 to 10 | 5 to 10 | 1000 to 5000 | 1000 to 10000
